Read-outs that look alike come from different tables or passages of the source. One block for each compound: values may come before it.
How the values were obtained:
[1] = target: T1, 348 GPCRs (Homo sapiens, UniProt O75388); assay: TGFα-shedding assay-based GPCR screening with chimeric Gα subunit proteins; type: cell-based; conditions: 10µM, Favipiravir 100μM
T1 construct: expressed in transfected cells; host or cells: HEK293A

[2] = target: 348 GPCRs (Homo sapiens, UniProt Q9UPC5); assay: as above; type: cell-based; conditions: 10µM, Favipiravir 100μM
[3] = target: T2, 348 GPCRs (Homo sapiens, UniProt O00398); assay: as above; type: cell-based
T2 construct: expressed in transfected cells; host or cells: HEK293A

[4] = target: T3, 348 GPCRs (Homo sapiens, UniProt P51684); assay: as above; type: cell-based; conditions: 10µM, Favipiravir 100μM
T3 construct: expressed in transfected cells; host or cells: HEK293A
T3 sequence (P51684 1-374): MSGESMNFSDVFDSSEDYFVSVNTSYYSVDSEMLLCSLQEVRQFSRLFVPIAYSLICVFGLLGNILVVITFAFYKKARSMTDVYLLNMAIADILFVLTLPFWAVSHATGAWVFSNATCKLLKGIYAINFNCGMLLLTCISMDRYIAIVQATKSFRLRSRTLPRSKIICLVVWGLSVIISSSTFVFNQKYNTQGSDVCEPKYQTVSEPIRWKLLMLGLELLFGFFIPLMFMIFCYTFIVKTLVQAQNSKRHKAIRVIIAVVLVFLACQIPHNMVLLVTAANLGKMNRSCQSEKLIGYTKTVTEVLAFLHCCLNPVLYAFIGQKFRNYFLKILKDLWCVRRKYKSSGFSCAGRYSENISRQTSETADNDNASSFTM

[5] = target: T4, 348 GPCRs (Homo sapiens, UniProt Q5UAW9); assay: as above; type: cell-based; conditions: 10µM, Favipiravir 100μM
T4 construct: expressed in transfected cells; host or cells: HEK293A

[6] = target: T5, relaxin/insulin-like family peptide receptor 2 (Homo sapiens, UniProt Q8WXD0); assay: cell-based; design: species or system HEK293A; AP-TGFα shedding assay, transfected GPCR plus chimeric Gα mixture, AP release as % of TPA response; conditions: HEK293-A
T5 construct: gene RXFP2

[7] = target: T6, chemokine (C-X3-C motif) receptor 1 (Homo sapiens, UniProt P49238); assay: cell-based; design: species or system HEK293A; AP-TGFα shedding assay, transfected GPCR plus chimeric Gα mixture, AP release as % of TPA response; conditions: HEK293-A
T6 construct: gene CX3CR1
T6 sequence (P49238 1-355): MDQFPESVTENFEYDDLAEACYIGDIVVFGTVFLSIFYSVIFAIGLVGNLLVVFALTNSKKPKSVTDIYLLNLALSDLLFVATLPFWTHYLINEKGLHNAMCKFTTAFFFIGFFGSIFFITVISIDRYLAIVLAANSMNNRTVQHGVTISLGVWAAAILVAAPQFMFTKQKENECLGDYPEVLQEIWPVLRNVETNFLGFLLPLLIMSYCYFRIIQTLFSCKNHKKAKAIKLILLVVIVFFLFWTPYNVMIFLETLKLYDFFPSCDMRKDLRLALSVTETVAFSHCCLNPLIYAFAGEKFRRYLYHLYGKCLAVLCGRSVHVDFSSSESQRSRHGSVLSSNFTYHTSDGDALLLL

[8] = target: T7, GPR132 (Homo sapiens, UniProt Q9UNW8); assay: cell-based; design: species or system HEK293A; AP-TGFα shedding assay, transfected GPCR plus chimeric Gα mixture, AP release as % of TPA response; conditions: HEK293-A
T7 sequence (Q9UNW8 1-380): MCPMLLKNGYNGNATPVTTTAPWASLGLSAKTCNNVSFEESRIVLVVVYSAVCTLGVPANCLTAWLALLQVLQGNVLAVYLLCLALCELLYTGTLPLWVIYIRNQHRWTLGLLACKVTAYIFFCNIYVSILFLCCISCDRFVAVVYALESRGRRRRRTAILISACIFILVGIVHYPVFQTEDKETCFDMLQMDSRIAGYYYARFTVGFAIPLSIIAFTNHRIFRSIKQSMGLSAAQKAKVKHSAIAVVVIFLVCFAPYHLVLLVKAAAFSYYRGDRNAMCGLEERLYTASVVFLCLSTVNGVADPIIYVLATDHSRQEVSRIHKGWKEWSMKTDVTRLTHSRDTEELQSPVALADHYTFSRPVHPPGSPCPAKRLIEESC

[9] = target: T8, leukotriene B4 receptor 2 (Homo sapiens, UniProt Q9NPC1); assay: cell-based; design: species or system HEK293A; AP-TGFα shedding assay, transfected GPCR plus chimeric Gα mixture, AP release as % of TPA response; conditions: HEK293-A
T8 construct: gene LTB4R2
T8 sequence (Q9NPC1 1-358): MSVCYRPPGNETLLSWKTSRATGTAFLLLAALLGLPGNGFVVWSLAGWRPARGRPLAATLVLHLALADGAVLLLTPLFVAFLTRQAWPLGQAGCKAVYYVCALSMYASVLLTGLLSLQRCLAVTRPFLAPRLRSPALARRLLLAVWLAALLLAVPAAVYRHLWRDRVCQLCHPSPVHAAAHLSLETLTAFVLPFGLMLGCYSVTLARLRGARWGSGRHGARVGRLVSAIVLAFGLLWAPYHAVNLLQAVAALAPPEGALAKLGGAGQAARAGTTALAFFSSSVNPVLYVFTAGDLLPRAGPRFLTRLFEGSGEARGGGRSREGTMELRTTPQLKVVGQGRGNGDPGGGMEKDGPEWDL

[10] = target: T9, G protein-coupled receptor 65 (Homo sapiens, UniProt Q8IYL9); assay: cell-based; design: species or system HEK293A; AP-TGFα shedding assay, transfected GPCR plus chimeric Gα mixture, AP release as % of TPA response; conditions: HEK293-A
T9 construct: gene GPR65

[11] = target: T10, secretin receptor (Homo sapiens, UniProt P47872); assay: cell-based; design: species or system HEK293A; AP-TGFα shedding assay, transfected GPCR plus chimeric Gα mixture, AP release as % of TPA response; conditions: HEK293-A
T10 construct: gene SCTR

[12] = GPR32 (G protein-coupled receptor 32), read-out: % GPCR activation compared to TPA
[13] = GPR34 (G Protein-Coupled Receptor 34), read-out: % GPCR activation compared to TPA
[14] = GPCR P2RY10 (purinergic receptor P2Y, G-protein coupled, 10), read-out: % GPCR activation compared to TPA
[15] = CCR6 (C-C motif chemokine receptor 6), read-out: % GPCR activation compared to TPA
[16] = GPR157 (G Protein-Coupled Receptor 157), read-out: % GPCR activation compared to TPA
[17] = read-out: % GPCR activation of 10μM GS441524 compared to TPA
[18] = read-out: % GPCR activation of 100μM Favipiravir compared to TPA
[19] = read-out: % GPCR activation of 10µM Molnupiravir compared to TPA
[20] = read-out: % GPCR activation compared to TPA, GPR32 (G protein-coupled receptor 32)
[21] = read-out: % GPCR activation compared to TPA, GPR34 (G Protein-Coupled Receptor 34)
[22] = read-out: % GPCR activation compared to TPA, GPCR P2RY10 (purinergic receptor P2Y, G-protein coupled, 10)
[23] = read-out: % GPCR activation compared to TPA, CCR6 (C-C motif chemokine receptor 6)
[24] = read-out: % GPCR activation compared to TPA, GPR157 (G Protein-Coupled Receptor 157)
[25] = read-out: % GPCR activation of 10µM Remdesivir compared to TPA
[26] = read-out: % GPCR activation of 10μM Sofosbuvir compared to TPA

T9 sequence (Q8IYL9 whole entry): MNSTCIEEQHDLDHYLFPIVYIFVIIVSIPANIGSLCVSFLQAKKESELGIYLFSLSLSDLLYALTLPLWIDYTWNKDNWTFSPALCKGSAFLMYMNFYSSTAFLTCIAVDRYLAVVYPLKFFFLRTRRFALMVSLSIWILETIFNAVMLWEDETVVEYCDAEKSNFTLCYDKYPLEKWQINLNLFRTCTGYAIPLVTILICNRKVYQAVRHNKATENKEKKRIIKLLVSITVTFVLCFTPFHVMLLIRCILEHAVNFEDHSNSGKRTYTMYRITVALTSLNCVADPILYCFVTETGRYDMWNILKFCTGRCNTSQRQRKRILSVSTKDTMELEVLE
T5 sequence (Q8WXD0 whole entry): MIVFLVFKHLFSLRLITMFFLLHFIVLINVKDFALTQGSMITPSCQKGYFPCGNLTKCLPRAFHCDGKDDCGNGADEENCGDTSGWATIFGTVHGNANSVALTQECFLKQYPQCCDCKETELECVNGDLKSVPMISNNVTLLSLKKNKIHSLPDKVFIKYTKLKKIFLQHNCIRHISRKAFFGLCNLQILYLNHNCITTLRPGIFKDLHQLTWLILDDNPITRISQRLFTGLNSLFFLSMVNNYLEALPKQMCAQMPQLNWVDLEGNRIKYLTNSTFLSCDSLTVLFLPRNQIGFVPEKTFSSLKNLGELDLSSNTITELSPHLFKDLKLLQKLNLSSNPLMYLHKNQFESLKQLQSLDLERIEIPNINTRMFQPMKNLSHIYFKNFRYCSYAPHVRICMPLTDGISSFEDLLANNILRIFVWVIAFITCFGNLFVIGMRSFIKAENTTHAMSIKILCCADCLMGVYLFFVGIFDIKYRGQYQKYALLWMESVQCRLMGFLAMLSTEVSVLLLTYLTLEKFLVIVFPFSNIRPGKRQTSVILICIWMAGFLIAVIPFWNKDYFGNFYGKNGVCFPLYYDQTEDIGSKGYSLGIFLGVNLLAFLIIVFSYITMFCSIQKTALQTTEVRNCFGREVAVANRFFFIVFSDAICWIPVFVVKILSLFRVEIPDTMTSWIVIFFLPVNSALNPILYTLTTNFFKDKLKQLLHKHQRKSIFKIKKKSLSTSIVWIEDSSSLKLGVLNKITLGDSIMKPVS
T4 sequence (Q5UAW9 whole entry): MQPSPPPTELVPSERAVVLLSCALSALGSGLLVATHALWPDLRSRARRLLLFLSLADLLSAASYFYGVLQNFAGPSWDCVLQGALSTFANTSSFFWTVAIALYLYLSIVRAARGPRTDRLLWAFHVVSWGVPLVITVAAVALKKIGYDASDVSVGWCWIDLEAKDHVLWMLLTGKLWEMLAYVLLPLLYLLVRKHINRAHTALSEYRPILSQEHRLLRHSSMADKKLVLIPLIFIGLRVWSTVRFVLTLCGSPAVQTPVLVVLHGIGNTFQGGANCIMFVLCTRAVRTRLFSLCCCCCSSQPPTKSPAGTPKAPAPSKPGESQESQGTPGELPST
Chain of 348 GPCRs (Homo sapiens, UniProt Q9UPC5) (Q9UPC5 whole entry): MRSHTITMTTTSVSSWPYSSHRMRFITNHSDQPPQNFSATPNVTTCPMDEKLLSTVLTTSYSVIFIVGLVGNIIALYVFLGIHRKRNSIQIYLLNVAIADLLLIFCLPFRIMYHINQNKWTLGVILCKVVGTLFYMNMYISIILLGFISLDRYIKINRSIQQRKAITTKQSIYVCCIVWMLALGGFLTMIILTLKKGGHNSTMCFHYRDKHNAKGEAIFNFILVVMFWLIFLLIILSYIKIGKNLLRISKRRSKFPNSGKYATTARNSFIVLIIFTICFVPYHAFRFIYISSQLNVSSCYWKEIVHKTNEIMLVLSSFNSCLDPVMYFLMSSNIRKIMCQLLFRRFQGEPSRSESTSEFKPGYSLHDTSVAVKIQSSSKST
T2 sequence (O00398 whole entry): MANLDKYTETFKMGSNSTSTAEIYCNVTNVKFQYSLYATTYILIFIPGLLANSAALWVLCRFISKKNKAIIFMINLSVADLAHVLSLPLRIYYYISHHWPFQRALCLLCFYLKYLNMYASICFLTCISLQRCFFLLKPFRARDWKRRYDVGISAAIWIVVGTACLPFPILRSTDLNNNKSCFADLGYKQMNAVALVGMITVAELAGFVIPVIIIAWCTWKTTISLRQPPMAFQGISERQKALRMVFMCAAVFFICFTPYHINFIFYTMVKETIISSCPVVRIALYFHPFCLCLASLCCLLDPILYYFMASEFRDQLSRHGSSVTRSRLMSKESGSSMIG
T10 sequence (P47872 whole entry): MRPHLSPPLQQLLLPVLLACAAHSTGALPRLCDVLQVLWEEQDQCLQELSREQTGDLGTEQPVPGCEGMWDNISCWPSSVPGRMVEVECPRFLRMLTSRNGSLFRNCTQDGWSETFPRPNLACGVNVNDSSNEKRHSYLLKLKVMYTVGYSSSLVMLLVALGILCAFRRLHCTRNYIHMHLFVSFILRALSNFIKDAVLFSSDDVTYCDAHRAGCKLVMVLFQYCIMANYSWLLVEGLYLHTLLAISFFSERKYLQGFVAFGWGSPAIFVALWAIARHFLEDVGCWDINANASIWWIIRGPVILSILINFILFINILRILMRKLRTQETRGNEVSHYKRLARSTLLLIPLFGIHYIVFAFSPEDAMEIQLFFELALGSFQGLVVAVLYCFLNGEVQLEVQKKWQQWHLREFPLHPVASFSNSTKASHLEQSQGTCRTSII
T1 sequence (O75388 whole entry): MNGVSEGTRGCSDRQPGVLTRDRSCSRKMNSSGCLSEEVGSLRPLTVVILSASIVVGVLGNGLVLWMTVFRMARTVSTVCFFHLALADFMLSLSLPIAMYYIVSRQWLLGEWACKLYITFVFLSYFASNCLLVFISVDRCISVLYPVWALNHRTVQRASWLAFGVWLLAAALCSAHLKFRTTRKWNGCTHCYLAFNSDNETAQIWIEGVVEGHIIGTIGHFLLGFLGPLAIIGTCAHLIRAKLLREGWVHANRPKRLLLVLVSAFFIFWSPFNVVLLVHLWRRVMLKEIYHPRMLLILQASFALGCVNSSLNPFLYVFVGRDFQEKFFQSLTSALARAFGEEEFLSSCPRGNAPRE

- activation at 10 µM [1, 12]: 1.37%
- activation at 10 µM [2, 13]: -1.27%
- activation at 10 µM [3, 14]: -1.36%
- activation at 10 µM [4, 15]: 0.67%
- activation at 10 µM [5, 16]: -1.23%
- activity at 10 µM [6, 17]: -1.3%
- activity at 10 µM [7, 17]: -0.521%
- activity at 10 µM [9, 17]: -0.182%
- activity at 10 µM [10, 17]: -3.08%
- activity at 10 µM [11, 17]: 0.894%
SMILES: N#C[C@@]1(c2ccc3c(N)ncnn23)O[C@H](CO)[C@@H](O)[C@H]1O [GS441524]
- activity at 10 µM [8, 17]: -8.13%

- activation at 10 µM [1, 12]: 0.0718%
- activation at 10 µM [2, 13]: -0.575%
- activation at 100 µM ([3]; GPCR P2RY10 (purinergic receptor P2Y, G-protein coupled, 10), 100μM, read-out: % GPCR activation compared to TPA): -0.745%
- activation at 10 µM [4, 15]: 0.146%
- activation at 10 µM [5, 16]: -0.889%
- activity at 100 µM [6, 18]: -0.673%
- activity at 100 µM [7, 18]: 0.0634%
- activity at 100 µM [8, 18]: 7.4%
- activity at 100 µM [9, 18]: -0.0275%
- activity at 100 µM [10, 18]: 1.28%
- activity at 100 µM [11, 18]: -0.513%
SMILES: NC(=O)c1nc(F)cnc1O [favipiravir, 6-fluoro-3-hydroxy-2-pyrazinecarboxamide]

- activation at 10 µM [1, 12]: -4.1%
- activation at 10 µM [2, 13]: -1.95%
- activation at 10 µM [3, 14]: -1.61%
- activation at 10 µM [4, 15]: -2.53%
- activation at 10 µM [5, 16]: -0.773%
- activity at 10 µM [6, 19]: -1.68%
- activity at 10 µM [7, 19]: -0.579%
- activity at 10 µM [8, 19]: -1.8%
- activity at 10 µM [9, 19]: -0.206%
- activity at 10 µM [10, 19]: -8.38%
- activity at 10 µM [11, 19]: -0.0837%
SMILES: CC(C)C(=O)OC[C@H]1O[C@@H](n2ccc(NO)nc2=O)[C@H](O)[C@@H]1O [molnupiravir]

SMILES: CCC(CC)COC(=O)[C@H](C)N[P@](=O)(OC[C@H]1O[C@@](C#N)(c2ccc3c(N)ncnn23)[C@H](O)[C@@H]1O)Oc1ccccc1 [remdesivir]
- activation at 10 µM [1, 20]: 1.78%
- activation at 10 µM [2, 21]: -1.23%
- activation at 10 µM [3, 22]: -1.53%
- activation at 10 µM [4, 23]: 2.34%
- activation at 10 µM [5, 24]: 1.04%
- activity at 10 µM [6, 25]: 0.369%
- activity at 10 µM [7, 25]: 2.08%
- activity at 10 µM [8, 25]: 11%
- activity at 10 µM [9, 25]: -0.974%
- activity at 10 µM [10, 25]: -1.39%
- activity at 10 µM [11, 25]: -0.951%

SMILES: CC(C)OC(=O)[C@H](C)N[P@](=O)(OC[C@H]1O[C@@H](n2ccc(=O)[nH]c2=O)[C@](C)(F)[C@@H]1O)Oc1ccccc1 [sofosbuvir]
- activation at 10 µM [1, 20]: -3.92%
- activation at 10 µM [2, 21]: -0.895%
- activation at 10 µM [3, 22]: 0.334%
- activation at 10 µM [4, 23]: -3.43%
- activation at 10 µM [5, 24]: 3.51%
- activity at 10 µM [6, 26]: -1.51%
- activity at 10 µM [7, 26]: 0.247%
- activity at 10 µM [8, 26]: -1.37%
- activity at 10 µM [9, 26]: 1.86%
- activity at 10 µM [10, 26]: -10.5%
- activity at 10 µM [11, 26]: 0.153%

From article PMC10175918 (Communications Biology, 2023)
